Reference: PMC11605291 (Frontiers in Pharmacology, 2024)

Tests used:
[1] = Plasma pharmacokinetics of amdizalisib (LC-MS/MS) after a single oral dose of [14C]amdizalisib suspension; type: in vivo, human; details: for CL/F: amdizalisib in plasma, single oral 30 mg/100 µCi suspension, mean ± SD
Description: (§1) Six subjects were admitted to the clinical research center 1 day prior to dosing, with random urine and fecal samples collected as blank excretion controls. After fasting overnight for at least 10 h, a blank blood sample was collected after a regular breakfast (449 kcal, with ∼35% energy from fat) on Day 1. […] It is noteworthy that the medication administration duration for each subject was strictly kept within 10 min. Scheduled collection of urine, feces, and blood samples, and safety monitoring proceeded until completion.
(§2) Venous blood samples were collected within 0.5 h prior to administration and at 0.5, 1, 1.5, 2, 3, 4, 6, 8, 12, 24, 36, 48, 72, and 96 h after administration. About 8 mL of blood was collected at each time point in the anticoagulant collection tube containing K2-EDTA. The centrifuged plasma was used for non-radioactive and radioactive pharmacokinetic and biotransformation (metabolite) analyses. In addition, about 2 mL of venous blood was collected within 0.5 h before administration and at 1, 4, 8, 12, 24, and 48 h after administration for whole blood radioactivity analysis. Additional 10 mL of venous blood for each time point was collected at 1, 4, 8, 12, 24, and 48 h after administration, and the plasma was obtained by centrifugation for biotransformation (metabolites) analysis. Urine and fecal samples were collected until 144 h (4 subjects) or 192 h (2 subjects) after administration.
Chromatographic separation was achieved on an XBridge C18 column, maintained at 40°C, with a mobile phase consisting of 2 mM ammonium formate in water (A) and methanol (B). A gradient elution was employed at a flow rate of 0.6 mL/min. The autosampler was set to 5°C, with an injection volume of 5 μL. […] Each analytical run included calibration standards and quality control samples to ensure method accuracy and precision. The corrected total concentration data of labelled (^14C) and unlabeled (^12C) analytes were given directly by Analyst data processing software. The standard curve consists of 0.500, 1.00, 2.00, 10.0, 50.0, 200, 450, 500 ng/mL. The quality control (QC) sample concentrations were 0.5 (lower limit of quantification QC), 1.50 (lower QC), 20.0 (low to medium QC), 250 (medium QC), 400 (high QC) ng/mL, respectively.
Pharmacokinetic analysis was performed using Phoenix WinNonlin® software version 8.3. […] Non-compartmental model was used to estimate the main PK parameters. Descriptive statistics applied to parameters including maximum plasma concentration after administration (Cmax), the time to reach maximum plasma concentration after administration (Tmax), elimination rate constant (λz), area under the plasma concentration-time curve from the time 0 to the time of last quantifiable concentration (AUC0-t, obtained by the linear trapezoidal method), area under the plasma concentration-time curve from time 0 extrapolated to infinity (AUC0-∞, AUC0-∞ = AUC0-t + Ct/λ z ), half-life (t1/2, t1/2 = ln ([…])/λz), mean residence time (MRT, MRT = AUMC/AUC), apparent clearance (CL/F, CL/F = Dose/AUC0-∞), apparent volume of distribution based on terminal phase (Vz/F, Vz/F = Dose/(λz×AUC0-∞)).

[2] = Total radioactivity in plasma and whole blood (LSC), pharmacokinetics and blood-to-plasma ratio; type: in vivo, human
Description: Six subjects were admitted to the clinical research center 1 day prior to dosing, with random urine and fecal samples collected as blank excretion controls. After fasting overnight for at least 10 h, a blank blood sample was collected after a regular breakfast (449 kcal, with ∼35% energy from fat) on Day 1. […] Scheduled collection of urine, feces, and blood samples, and safety monitoring proceeded until completion.
Pharmacokinetic analysis was performed using Phoenix WinNonlin® software version 8.3. […] Descriptive statistics applied to parameters including maximum plasma concentration after administration (Cmax), the time to reach maximum plasma concentration after administration (Tmax), elimination rate constant (λz), area under the plasma concentration-time curve from the time 0 to the time of last quantifiable concentration (AUC0-t, obtained by the linear trapezoidal method), area under the plasma concentration-time curve from time 0 extrapolated to infinity (AUC0-∞, AUC0-∞ = AUC0-t + Ct/λ z ), half-life (t1/2, t1/2 = ln ([Lannutti et al., 2011])/λz), mean residence time (MRT, MRT = AUMC/AUC), apparent clearance (CL/F, CL/F = Dose/AUC0-∞), apparent volume of distribution based on terminal phase (Vz/F, Vz/F = Dose/(λz×AUC0-∞)).
Radioactivity was measured using an oxidative combustion apparatus and liquid scintillation counter (LSC). After the whole blood sample was vortexed thoroughly, two portions (about 0.5 g each) were weighed into the combustion boat, and after complete combustion by oxidative combustion apparatus, [^14C]carbon dioxide generated from the combustion of the samples was captured by scintillation solution and measured by liquid scintillation counter. After plasma samples were fully vortexed, one portion (approximately 0.5 g) was weighed into a scintillation vial, mixed well with the scintillation solution, and measured using a liquid scintillation counter. […]

[3] = Excretion of radioactivity in urine and feces (mass balance); type: in vivo, human
Description: as §1
The excreta sample collection ceased when total radioactivity from excreta surpassed 80% of the administered dose, or less than 1% of the dose for two consecutive intervals. Blood sample collection ceased when the radioactivity of plasma at 2 consecutive time points was lower than 3 times the radioactivity at 0 h before administration. Based on the interim results, sample collection concluded earlier than initially planned.
as §2
Radioactivity was measured using an oxidative combustion apparatus and liquid scintillation counter (LSC). After the whole blood sample was vortexed thoroughly, two portions (about 0.5 g each) were weighed into the combustion boat, and after complete combustion by oxidative combustion apparatus, [^14C]carbon dioxide generated from the combustion of the samples was captured by scintillation solution and measured by liquid scintillation counter. After plasma samples were fully vortexed, one portion (approximately 0.5 g) was weighed into a scintillation vial, mixed well with the scintillation solution, and measured using a liquid scintillation counter. When the radioactivity of the plasma sample after administration is below the LLOQ, additional samples can be added, up to a maximum of 1 g. After mixing the urine well, weighed one portion (about 1 g) into a scintillation bottle, then added scintillation solution to mix well, and use a liquid scintillation counter to measure the radioactivity. The feces were transferred to labelled containers with known empty weights and soaked in an appropriate amount of 50% aqueous isopropanol solution for about 2–4 h or for a certain period of time (e.g., overnight) at 1°C–9°C. Before homogenization, the solution was made up to a suitable dilution by the addition of an appropriate amount of 50% aqueous isopropanol, the total weight was weighed and recorded, and the homogenization was carried out using a tissue homogenizer. Two equal portions of the homogenate (approximately 0.3 g) were weighed into a combustion boat and fully combusted by an oxidative combustion apparatus, and the [^14C]carbon dioxide generated from the combustion of the samples was captured with a scintillation solution and measured using a liquid scintillation counter.
The combustion efficiency of the oxidative combustor was verified by performing a combustion recovery test using a^14C-containing standard solution of known radioactivity concentration prior to combustion of the sample. […]

[4] = Safety and tolerability evaluation; details: for serious adverse events or deaths: 6 healthy Chinese males
Description: The safety of the subjects was assessed by adverse events, laboratory test results, vital signs, and 12-lead electrocardiogram (ECG). AEs were recorded from the time of administration and serious adverse events (SAE) were recorded from the time that subjects signed the informed consent. Subjects with elevated aspartate aminotransferase (AST) and/or alanine aminotransferase (ALT) levels (≥3 × ULN) combined with elevated serum total bilirubin (≥2 × ULN) or clinical jaundice in the same blood sample should be recorded as a specific adverse event.

[5] = total radioactivity in plasma, mean ± SD

C[C@H](Nc1ncnc(N)c1C#N)c1cc2ncc(Cl)n2nc1-c1ccccc1 [Amdizalisib]
CL/F [1]: 16.8 ± 4.44 L/h
CL/F ([1]; listed as amdizalisib): 16.8 L/h
concentration at 72 h ([1]; male, human, plasma, oral, 30 mg, below the lower quantifiable limit in 4 of 6 subjects, detectable in 2): < 0.5 ng/mL
AUC(0-inf) ([1]; male, human, plasma, po, 30 mg): 1880 ± 478 ng·h/mL
AUC(0-t) ([1]; male, human, plasma, po, 30 mg): 1870 ± 474 ng·h/mL
Cmax ([1]; male, human, plasma, po, 30 mg): 244 ± 48.9 ng/mL
half-life ([1]; male, human, plasma, po, 30 mg): 8.34 ± 2.43 h
MRT last ([1]; male, human, plasma, po, 30 mg, read-out: MRT0-t): 9.65 ± 1.48 h
Vd/F ([1]; male, human, plasma, po, 30 mg, read-out: Vz/F): 192 ± 28 L
average plasma total radioactivity concentration at 96 h post dose ([2]; still detectable in 4 subjects): 4.74 ng Eq./mL
AUC0-t of total radioactivity [2, 5]: 3,900 h ng Eq./mL
CL/F of total radioactivity [2, 5]: 7.25 L/h
Cmax of total radioactivity [2, 5]: 368 ng Eq./mL
Aefeces, % of dose ([3]; Total (mean ± SD), 6 subjects, feces 0–144/192 h): 62.08 % of dose
Aefeces, % of dose ([3]; Total (mean ± SD), 6 subjects, feces 0–144/192 h, listed as [^14C] Amdizalisib): 62.08 ± 3.00 % of dose
Aeurine, % of dose ([3]; Total (mean ± SD), 6 subjects, urine 0–144/192 h): 37.15 % of dose
Aeurine, % of dose ([3]; Total (mean ± SD), 6 subjects, urine 0–144/192 h, listed as [^14C] Amdizalisib): 37.15 ± 2.84 % of dose
Aetotal, % of dose ([3]; Total (mean ± SD), 6 subjects, urine and feces 0–144/192 h, listed as [^14C] Amdizalisib): 99.23 ± 0.30 % of dose
Aetotal, % of dose ([3]; Total (mean ± SD), 6 subjects, urine and feces 0–144/192 h, listed as [^14C]amdizalisib): 99.23 % of dose
time within which completely excreted ([3]; single oral dose of [14C]amdizalisib suspension): ≤ 168 h
Aefeces, % of dose ([3]; subject 1,001, feces 0–192 h): 58.49 % of dose
Aeurine, % of dose ([3]; subject 1,001, urine 0–192 h): 40.40 % of dose
Aetotal, % of dose ([3]; subject 1,001, urine and feces 0–192 h): 98.89 % of dose
Aefeces, % of dose ([3]; subject 1,002, feces 0–192 h): 63.33 % of dose
Aeurine, % of dose ([3]; subject 1,002, urine 0–192 h): 35.85 % of dose
Aetotal, % of dose ([3]; subject 1,002, urine and feces 0–192 h): 99.18 % of dose
Aefeces, % of dose ([3]; subject 1,003, feces 0–144 h): 64.48 % of dose
Aeurine, % of dose ([3]; subject 1,003, urine 0–144 h): 35.12 % of dose
Aetotal, % of dose ([3]; subject 1,003, urine and feces 0–144 h): 99.60 % of dose
Aefeces, % of dose ([3]; subject 1,004, feces 0–144 h): 58.70 % of dose
Aeurine, % of dose ([3]; subject 1,004, urine 0–144 h): 40.65 % of dose
Aetotal, % of dose ([3]; subject 1,004, urine and feces 0–144 h): 99.35 % of dose
Aefeces, % of dose ([3]; subject 1,005, feces 0–144 h): 61.77 % of dose
Aeurine, % of dose ([3]; subject 1,005, urine 0–144 h): 37.11 % of dose
Aetotal, % of dose ([3]; subject 1,005, urine and feces 0–144 h): 98.88 % of dose
Aefeces, % of dose ([3]; subject 1,006, feces 0–144 h): 65.73 % of dose
Aeurine, % of dose ([3]; subject 1,006, urine 0–144 h): 33.74 % of dose
Aetotal, % of dose ([3]; subject 1,006, urine and feces 0–144 h): 99.47 % of dose
average excretion of total radioactivity within 96 h after administration ([3]; urine plus feces): over 94 % of the administered dose
excretion within 96 h as share of the total excretion from 0 h to 192 h ([3]; urine plus feces): 94.74%
average excretion of total radioactivity within 96 h after administration ([3]; urine plus feces, listed as [^14C]amdizalisib): 94.01 % of the administered dose
subjects reporting TEAEs ([4]; 5 of 6 subjects, single oral 30 mg/100 µCi): 83.3%
serious adverse events or deaths [4]: No serious adverse events or drug-related deaths occured
serious adverse events or deaths ([4]; listed as amdizalisib): No subjects reported serious adverse events or adverse events leading to death
severity of TEAEs ([4]; all TEAEs, considered study drug related): grade 1
subjects reporting diarrhea as TEAE ([4]; four subjects): 66.7%
number of TEAEs reported ([4]; throughout the study, 6 subjects): 11
subjects reporting abnormal laboratory test results ([4]; two subjects, shortened ECG PR, elevated low-density lipoprotein, positive urine white blood cells): 33.3%
